Data: US9676782B2, “Substituted pyrazolo[1,5-a]pyrazines as negative allosteric modulators of metabotropic glutamate receptor 3” (Vanderbilt University, priority 2014, dated 2017)
Where two headings read alike, the source gives them in different places.

Tests used:
[1] = target: rat mGlu3 (Rattus norvegicus (Rat), UniProt P31422); experiment: mGlu3 Ca2+ flux assay; type: cell-based; conditions: for remaining activity at 30 µM: amplitude of response at 30 μM test compound as % of maximal response to glutamate, read-out: rat mGlu3 Glu max (%); for mGlu3 Glu max: response at 30 μM compound as percentage of maximal glutamate response
Chain of rat mGlu3 (P31422 23-879): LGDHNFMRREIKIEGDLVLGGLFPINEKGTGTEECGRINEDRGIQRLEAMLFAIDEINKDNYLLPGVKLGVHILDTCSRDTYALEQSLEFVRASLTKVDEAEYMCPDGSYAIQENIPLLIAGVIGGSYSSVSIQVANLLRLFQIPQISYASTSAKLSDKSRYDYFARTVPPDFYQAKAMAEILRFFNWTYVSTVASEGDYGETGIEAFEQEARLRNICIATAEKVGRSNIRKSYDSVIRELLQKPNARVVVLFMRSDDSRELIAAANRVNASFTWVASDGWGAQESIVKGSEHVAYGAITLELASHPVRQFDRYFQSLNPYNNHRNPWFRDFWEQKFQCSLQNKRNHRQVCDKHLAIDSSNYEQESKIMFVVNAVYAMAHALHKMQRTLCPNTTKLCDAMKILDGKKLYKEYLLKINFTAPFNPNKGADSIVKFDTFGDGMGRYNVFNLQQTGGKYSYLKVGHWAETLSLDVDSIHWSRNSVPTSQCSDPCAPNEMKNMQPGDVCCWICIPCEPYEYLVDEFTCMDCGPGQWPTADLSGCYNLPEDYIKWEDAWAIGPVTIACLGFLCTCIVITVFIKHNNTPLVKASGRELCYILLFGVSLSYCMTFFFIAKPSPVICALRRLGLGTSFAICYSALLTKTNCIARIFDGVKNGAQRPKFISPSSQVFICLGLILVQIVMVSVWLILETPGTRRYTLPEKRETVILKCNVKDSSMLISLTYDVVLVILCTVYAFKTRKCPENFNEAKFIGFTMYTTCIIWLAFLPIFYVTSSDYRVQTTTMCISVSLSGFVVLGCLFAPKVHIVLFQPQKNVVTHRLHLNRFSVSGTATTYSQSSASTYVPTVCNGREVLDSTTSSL
Outline: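 Cells expressing rat mGlu3 were grown overnight at 37° C. under 5% CO2, then loaded with dye. After dye removal they received 20 μL of assay buffer and sat 10 minutes at room temperature. Calcium flux was read on a Hamamatsu FDSS7000, and fluorescence was expressed as fold over basal and normalized to the maximal glutamate response.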

[2] = target: rat mGlu5 (Rattus norvegicus (Rat), UniProt P31424); experiment: mGlu5 Ca2+ flux assay; type: cell-based; conditions: for Fold selectivity (mGlu3 vs. mGlu5): ratio of rat mGlu5 EC50 or IC50 to rat mGlu3 IC50; for Emax at 30 µM: read-out: rat mGlu5 Glu max (%); for mGlu5 Glu max: response at 30 μM compound as percentage of maximal glutamate response
Chain of rat mGlu5 (P31424 21-1203): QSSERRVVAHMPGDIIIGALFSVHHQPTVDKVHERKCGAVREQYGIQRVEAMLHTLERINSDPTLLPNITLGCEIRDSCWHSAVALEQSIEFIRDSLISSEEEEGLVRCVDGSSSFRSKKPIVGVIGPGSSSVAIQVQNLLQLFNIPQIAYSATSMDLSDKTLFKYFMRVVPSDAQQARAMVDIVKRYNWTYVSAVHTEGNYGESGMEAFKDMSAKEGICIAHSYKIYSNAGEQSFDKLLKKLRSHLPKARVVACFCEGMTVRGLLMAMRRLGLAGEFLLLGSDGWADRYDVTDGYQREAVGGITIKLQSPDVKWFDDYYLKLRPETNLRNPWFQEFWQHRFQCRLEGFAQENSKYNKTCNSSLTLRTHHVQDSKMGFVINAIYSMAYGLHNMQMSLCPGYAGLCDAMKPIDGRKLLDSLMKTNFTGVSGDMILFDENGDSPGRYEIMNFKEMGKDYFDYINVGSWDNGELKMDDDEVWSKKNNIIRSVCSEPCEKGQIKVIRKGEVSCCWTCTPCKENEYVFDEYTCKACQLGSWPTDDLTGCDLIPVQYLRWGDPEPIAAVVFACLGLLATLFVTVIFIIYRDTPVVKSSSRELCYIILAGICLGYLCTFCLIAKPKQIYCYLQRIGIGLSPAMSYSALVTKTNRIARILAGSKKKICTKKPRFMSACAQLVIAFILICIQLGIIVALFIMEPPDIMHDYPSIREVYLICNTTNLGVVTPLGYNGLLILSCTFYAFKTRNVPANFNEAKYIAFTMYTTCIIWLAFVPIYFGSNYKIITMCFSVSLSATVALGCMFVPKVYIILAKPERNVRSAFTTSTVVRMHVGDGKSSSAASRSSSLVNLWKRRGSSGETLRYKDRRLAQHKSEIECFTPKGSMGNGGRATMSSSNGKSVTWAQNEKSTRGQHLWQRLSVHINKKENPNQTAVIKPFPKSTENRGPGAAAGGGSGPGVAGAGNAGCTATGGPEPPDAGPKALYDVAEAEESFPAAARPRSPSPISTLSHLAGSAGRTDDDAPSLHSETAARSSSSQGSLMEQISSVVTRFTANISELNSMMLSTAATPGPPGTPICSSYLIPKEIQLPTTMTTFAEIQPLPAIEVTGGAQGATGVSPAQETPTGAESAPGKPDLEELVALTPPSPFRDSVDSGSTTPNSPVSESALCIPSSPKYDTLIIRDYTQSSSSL
Outline: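 Transfected cells grown overnight at 37° C/5% CO2, dye-loaded, then 5 min in assay buffer at RT before Ca2+ flux read on FDSS7000. Fluorescence as F/F0 fold over basal, normalized to maximal glutamate response; EC50 from unconstrained 4-parameter logistic fit, triplicates weighted evenly.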

[3] = NAM potency, decrease of glutamate EC80 response, >30,000 = no measurable activity, >10,000 = no plateau, read-out: rat mGlu3 IC50
[4] = read-out: rat mGlu5 EC50 or IC50
[5] = Table 2 compounds with X = NMe, read-out: mGlu3 IC50
[6] = Table 2 compounds with X = NMe, read-out: mGlu5 EC50
[7] = PAM, amplitude of response at 30 μM test compound as % of maximal response to glutamate
[8] = Table 2 compounds with X = NH, read-out: mGlu3 IC50
[9] = Table 2 compounds with X = NH, read-out: mGlu5 EC50

For `COc1ccc(N(C)Cc2cc3n(n2)CCN(c2ccccc2C#N)C3=O)cc1` [Compound 112, 2-(2-(((4-methoxyphenyl)(methyl)amino)methyl)-4-oxo-6,7-dihydropyrazolo[1,5-a]pyrazin-5(4H)-yl)benzonitrile], the IC50 [1, 3] was 3.79 µM, the remaining activity at 30 µM [1] was 1.1% and the “Fold selectivity (mGlu3 vs. mGlu5)” value [2] was over 7.9. It also gave an EC50 [2, 4] of over 30 µM.
For `CN(Cc1cc2n(n1)CCN(c1ccc(F)cc1)C2=O)c1ccccc1F` [drawing 30 X = NMe], the IC50 [1, 5] was 0.876 µM, the “mGlu3 Glu max” value ([1]; Table 2 compounds with X = NMe) was −1% and the EC50 [2, 6] was over 30 µM.
With `O=C1c2cc(CNc3ccc(OC(F)F)cc3F)nn2CCN1c1cccc(F)n1` [Compound 138, 2-(((4-(difluoromethoxy)-2-fluorophenyl)amino)methyl)-5-(6-fluoropyridin-2-yl)-6,7-dihydropyrazolo[1,5-a]pyrazin-4(5H)-one] the remaining activity at 30 µM [1] was 2.05%, the IC50 ([1]; read-out: rat mGlu3 IC50) was 0.821 µM and the “Fold selectivity (mGlu3 vs. mGlu5)” value [2] was over 36. The EC50 [2, 4] was over 30 µM.
For `Cc1ccccc1NCc1cc2n(n1)[C@H](C)CN(c1ccc(F)cc1)C2=O` [Compound 44, (R)-5-(4-fluorophenyl)-7-methyl-2-((o-tolylamino)methyl)-6,7-dihydropyrazolo[1,5-a]pyrazin-4(5H)-one], the IC50 [1, 3] was 2.67 µM, the remaining activity at 30 µM [1] was -0.26% and the Emax at 30 µM [2, 7] was 23.9%. The “Fold selectivity (mGlu3 vs. mGlu5)” value [2] was over 3.7 and the EC50 [2, 4] was over 10 µM.
`O=C1c2cc(CNc3ccccc3F)nn2CCN1c1ccc(F)cc1` [drawing 30 X = NH] was tested, and the IC50 [1, 8] was 0.944 µM, the “mGlu3 Glu max” value ([1]; Table 2 compounds with X = NH) was 2% and the EC50 [2, 9] was 2.47 µM. The “mGlu5 Glu max” value ([2]; Table 2 compounds with X = NH) was 96%.
With `CN(Cc1cc2n(n1)CCN(c1ccc(F)cc1)C2=O)c1ccc(Br)cc1` [Compound 91, 2-(((4-bromophenyl)(methyl)amino)methyl)-5-(4-fluorophenyl)-6,7-dihydropyrazolo[1,5-a]pyrazin-4(5H)-one] the IC50 [1, 3] was 0.592 µM, the remaining activity at 30 µM [1] was 2.53% and the “Fold selectivity (mGlu3 vs. mGlu5)” value [2] was over 50. It also gave an EC50 [2, 4] of over 30 µM.
In the case of `COc1ccc(N(C)Cc2cc3n(n2)CCN(c2ccc(C)cc2F)C3=O)cc1` [Compound 108, 5-(2-fluoro-4-methylphenyl)-2-(((4-methoxyphenyl)(methyl)amino)methyl)-6,7-dihydropyrazolo[1,5-a]pyrazin-4(5H)-one], the IC50 [1, 3] is reported as 1.25 µM, the remaining activity at 30 µM [1] is reported as 0.97% and the “Fold selectivity (mGlu3 vs. mGlu5)” value [2] is reported as over 24. It also gave an EC50 [2, 4] of over 30 µM.
For `COc1cccc(N2CCn3nc(CNc4ccc(OC(F)F)cc4F)cc3C2=O)c1` [Compound 142, 2-(((4-(difluoromethoxy)-2-fluorophenyl)amino)methyl)-5-(3-methoxyphenyl)-6,7-dihydropyrazolo[1,5-a]pyrazin-4(5H)-one], the IC50 [1, 3] was 0.863 µM, the remaining activity at 30 µM [1] was 1.5% and the “Fold selectivity (mGlu3 vs. mGlu5)” value [2] was over 34. It also gave an EC50 [2, 4] of over 30 µM.
`CN(Cc1cc2n(n1)CCN(c1ccc(F)cc1)C2=O)c1cccc(F)c1` [Compound 86, 5-(4-fluorophenyl)-2-(((3-fluorophenyl)(methyl)amino)methyl)-6,7-dihydropyrazolo[1,5-a]pyrazin-4(5H)-one] was tested, and the IC50 [1, 3] was 0.594 µM, the remaining activity at 30 µM [1] was 1.68% and the Emax at 30 µM [2, 7] was 110%. The “Fold selectivity (mGlu3 vs. mGlu5)” value [2] was 13.06 and the EC50 [2, 4] was 7.76 µM.
In the case of `O=C1c2cc(CNc3ccccc3)nn2CCN1c1ccc(F)cc1` [drawing 29 X = NH], the IC50 [1, 8] is reported as 1.32 µM, the “mGlu3 Glu max” value ([1]; Table 2 compounds with X = NH) is reported as 2% and the EC50 [2, 9] is reported as 2.04 µM. The “mGlu5 Glu max” value ([2]; Table 2 compounds with X = NH) was 98%.
`O=C1c2cc(CNc3ccccn3)nn2CCN1c1ccc(F)cc1` [Compound 156, 5-(4-fluorophenyl)-2-((pyridin-2-ylamino)methyl)-6,7-dihydropyrazolo[1,5-a]pyrazin-4(5H)-one] showed an IC50 [1, 3] of 3.19 µM, a remaining activity at 30 µM [1] of -1.17% and an IC50 ([2]; compound noted as NAM or partial antagonist (PAnt) at mGlu5, glutamate EC80, read-out: rat mGlu5 EC50 or IC50) of over 10 µM. The Emax at 30 µM ([2]; compound noted as NAM or partial antagonist (PAnt) at mGlu5, response at 30 μM as % of maximal glutamate response) was 49.1% and the “Fold selectivity (mGlu3 vs. mGlu5)” value [2] was over 3.1.
In the case of `COc1ccc(N(C)Cc2cc3n(n2)CCN(c2cc(F)cc(Cl)c2)C3=O)cc1` [Compound 131, 5-(3-chloro-5-fluorophenyl)-2-(((4-methoxyphenyl)(methyl)amino)methyl)-6,7-dihydropyrazolo[1,5-a]pyrazin-4(5H)-one], the remaining activity at 30 µM [1] is reported as 1.95%, the IC50 ([1]; read-out: rat mGlu3 IC50) is reported as 1.37 µM and the “Fold selectivity (mGlu3 vs. mGlu5)” value [2] is reported as over 21. The EC50 [2, 4] was over 30 µM.
For `O=C1c2cc(COc3ccccc3F)nn2CCN1c1ccc(F)cc1` [drawing 30 X = O, reference compound], the IC50 ([1]; Table 2 compounds with X = O, read-out: mGlu3 IC50) was 0.264 µM, the “mGlu3 Glu max” value ([1]; Table 2 compounds with X = O) was 2% and the EC50 ([2]; Table 2 compounds with X = O, read-out: mGlu5 EC50) was 0.147 µM. For the same compound, the “mGlu5 Glu max” value ([2]; Table 2 compounds with X = O) was 61%.
For `COc1ccc(N(C)Cc2cc3n(n2)CCN(c2cccc(F)c2F)C3=O)cc1` [Compound 107, 5-(2,3-difluorophenyl)-2-(((4-methoxyphenyl)(methyl)amino)methyl)-6,7-dihydropyrazolo[1,5-a]pyrazin-4(5H)-one], the IC50 [1, 3] was 1.03 µM, the remaining activity at 30 µM [1] was 1.67% and the “Fold selectivity (mGlu3 vs. mGlu5)” value [2] was over 29. It also gave an EC50 [2, 4] of over 30 µM.
`O=C1c2cc(CNc3ccc(F)cc3)nn2CCN1c1ccc(F)cc1` [Compound 13, 5-(4-fluorophenyl)-2-(((4-fluorophenyl)amino)methyl)-6,7-dihydropyrazolo[1,5-a]pyrazin-4(5H)-one] gave an IC50 [1, 3] of 1.15 µM, a remaining activity at 30 µM [1] of 2.22% and an Emax at 30 µM [2, 7] of 56.6%. For the same compound, the “Fold selectivity (mGlu3 vs. mGlu5)” value [2] was 2.83 and the EC50 [2, 4] was 3.26 µM.
`O=C1c2cc(CNc3ccc(OC(F)F)cc3F)nn2CCN1c1ccccn1` [Compound 151, 2-(((4-(difluoromethoxy)-2-fluorophenyl)amino)methyl)-5-(pyridin-2-yl)-6,7-dihydropyrazolo[1,5-a]pyrazin-4(5H)-one] was tested, and the IC50 [1, 3] was 0.943 µM, the remaining activity at 30 µM [1] was 1.14% and the “Fold selectivity (mGlu3 vs. mGlu5)” value [2] was over 31. For the same compound, the EC50 [2, 4] was over 30 µM.
In the case of `C[C@@H]1CN(c2ccc(F)cc2)C(=O)c2cc(CNc3cccc(F)c3F)nn21` [Compound 68, (R)-2-(((2,3-difluorophenyl)amino)methyl)-5-(4-fluorophenyl)-7-methyl-6,7-dihydropyrazolo[1,5-a]pyrazin-4(5H)-one], the IC50 [1, 3] is reported as 1.23 µM, the remaining activity at 30 µM [1] is reported as 2.68% and the Emax at 30 µM [2, 7] is reported as 53.2%. For the same compound, the “Fold selectivity (mGlu3 vs. mGlu5)” value [2] was over 8.1 and the EC50 [2, 4] was over 10 µM.
For `COc1ccc(N(C)Cc2cc3n(n2)CCN(c2ccc(Cl)cc2)C3=O)cc1` [Compound 96, 5-(4-chlorophenyl)-2-(((4-methoxyphenyl)(methyl)amino)methyl)-6,7-dihydropyrazolo[1,5-a]pyrazin-4(5H)-one], the IC50 [1, 3] was 0.585 µM, the remaining activity at 30 µM [1] was 1.61% and the “Fold selectivity (mGlu3 vs. mGlu5)” value [2] was over 51. It also gave an EC50 [2, 4] of over 30 µM.
For `COc1ccc(N(C)Cc2cc3n(n2)CCN(c2cccc(Cl)c2F)C3=O)cc1` [Compound 135, 5-(3-chloro-2-fluorophenyl)-2-(((4-methoxyphenyl)(methyl)amino)methyl)-6,7-dihydropyrazolo[1,5-a]pyrazin-4(5H)-one], the IC50 [1, 3] was 1.21 µM, the remaining activity at 30 µM [1] was 7.26% and the “Fold selectivity (mGlu3 vs. mGlu5)” value [2] was over 24. For the same compound, the EC50 [2, 4] was over 30 µM.
`CN(Cc1cc2n(n1)CCN(c1ccc(F)cc1)C2=O)c1cccc(Cl)c1` [Compound 87, 2-(((3-chlorophenyl)(methyl)amino)methyl)-5-(4-fluorophenyl)-6,7-dihydropyrazolo[1,5-a]pyrazin-4(5H)-one] was tested, and the IC50 [1, 3] was 0.805 µM, the remaining activity at 30 µM [1] was 0.71% and the Emax at 30 µM [2, 7] was 41.9%. For the same compound, the “Fold selectivity (mGlu3 vs. mGlu5)” value [2] was over 12 and the EC50 [2, 4] was over 10 µM.
In the case of `CN(Cc1cc2n(n1)CCN(c1ccc(F)cc1)C2=O)c1ccccc1` [drawing 29 X = NMe], the IC50 [1, 5] is reported as 1.22 µM, the “mGlu3 Glu max” value ([1]; Table 2 compounds with X = NMe) is reported as 1% and the EC50 [2, 6] is reported as over 30 µM.
In the case of `COc1ccc(N(C)Cc2cc3n(n2)CCN(c2ccc(OC(F)F)cc2)C3=O)cc1` [Compound 123, 5-(4-(difluoromethoxy)phenyl)-2-(((4-methoxyphenyl)(methyl)amino)methyl)-6,7-dihydropyrazolo[1,5-a]pyrazin-4(5H)-one], the IC50 [1, 3] is reported as 1.03 µM, the remaining activity at 30 µM [1] is reported as 0.3% and the “Fold selectivity (mGlu3 vs. mGlu5)” value [2] is reported as over 29. It also gave an EC50 [2, 4] of over 30 µM.
`O=C1c2cc(CNc3ccc(F)c(F)c3)nn2CCN1c1ccc(F)cc1` [Compound 31, 2-(((3,4-difluorophenyl)amino)methyl)-5-(4-fluorophenyl)-6,7-dihydropyrazolo[1,5-a]pyrazin-4(5H)-one] showed an IC50 [1, 3] of 0.462 µM, a remaining activity at 30 µM [1] of 2.02% and an Emax at 30 µM [2, 7] of 75.8%. For the same compound, the “Fold selectivity (mGlu3 vs. mGlu5)” value [2] was 5.37 and the EC50 [2, 4] was 2.48 µM.
`O=C1c2cc(CNc3ccc(OC(F)F)c(F)c3)nn2CCN1c1ccc(F)cc1` [Compound 38, 2-(((4-(difluoromethoxy)-3-fluorophenyl)amino)methyl)-5-(4-fluorophenyl)-6,7-dihydropyrazolo[1,5-a]pyrazin-4(5H)-one] gave an IC50 [1, 3] of 0.489 µM, a remaining activity at 30 µM [1] of 2.28% and an Emax at 30 µM [2, 7] of 84.7%. The “Fold selectivity (mGlu3 vs. mGlu5)” value [2] was 3.19 and the EC50 [2, 4] was 1.56 µM.
